Laboratory results published in US12527886B2, “Radiopharmaceuticals and composition for thrombus imaging” (THE ASAN FOUNDATION, priority 2020, dated 2026).

Columns and labels:
[1] = Stability of Tc-99m labeled compound by radioTLC; assay type: physicochemical; conditions: for Eluent A / Eluent B: in % (unit assumed)
Experimental: (§1) After 2.0 mg of GP-104 was dissolved in 1.8 mL of water for injection and 0.2 mL of ethanol, the resulting solution was allowed to stand with a pH of about 5 at room temperature for 10 minutes when 20 μL of SnCl2 (15 mg/mL) and 2 mL of Tc-99m were added thereto, and the reaction was terminated by adjusting the pH to 7 using a NaOH solution. Stability up to 4 hours was confirmed by radioTLC under conditions of pH 5 and pH 7, respectively, and the results are summarized in the following Table 1. (TLC analysis conditions: iTLC was used, Eluent A: methyl ethyl ketone 100%, Eluent B: pyridine:acetic acid:purified water=3:5:15, and purity calculation: Eluent A−Eluent B)
as §1, with “ethanol, pH was adjusted to about 5 and” for “ethanol,”, “stand” for “stand with a pH of about 5”, “(15 mg/mL), 20 μL of cysteine (10” for “(15”, “Table 2.” for “Table 1.”
(§2) After 2.0 mg of GP-105 was dissolved in 1.8 mL of water for injection and 0.2 mL of ethanol, the pH was adjusted to about 5 and the resulting solution was allowed to stand at room temperature for 10 minutes when 20 μL of SnCl2 (15 mg/mL) and 2 mL of Tc-99m were added thereto, and the reaction was terminated by adjusting the pH to 7 using a NaOH solution. Stability until 4 hours under conditions of pH 5 and pH 7 was each confirmed by radioTLC. (TLC analysis conditions: iTLC was used, Eluent A: methyl ethyl ketone 100%, Eluent B: pyridine:acetic acid:purified water=3:5:15, and purity calculation: Eluent A−Eluent B)
as §2, with “ethanol,” for “ethanol, the”, “(15 mg/mL), 20 μL of cysteine (10” for “(15”

glycoprotein IIb/IIIa = target: T1, glycoprotein IIb/IIIa (Rattus norvegicus, UniProt A0A8I6GGN2+Q8R2H2); test: Glycoprotein IIb/IIIa specific uptake in thrombotic disease model, gamma counter / microSPECT; assay type: in vivo, rats
T1 construct: a disease model in which a thrombus was formed with glycoprotein IIb/IIIa overexpressed; from tissue; host or cells: in vivo rat carotid artery thrombus (ferric chloride model)
Text: After 6-week-old rats were anesthetized to make a thrombotic disease model, the carotid artery was secured by opening the skin on the carotid artery side. Then, a filter paper soaked with a 5% ferric chloride solution was exposed on the artery, and then washed three times or more with physiological saline, and the incised skin was sutured again to make a model. […]

[2] = Ex 4-1, no cysteine, pH 5, 0 hour
[3] = Ex 4-1, no cysteine, pH 5, 0.5 hours
[4] = Ex 4-1, no cysteine, pH 5, 1.0 hour
[5] = Ex 4-1, no cysteine, pH 5, 1.5 hours
[6] = Ex 4-1, no cysteine, pH 5, 2.0 hours
[7] = Ex 4-1, no cysteine, pH 5, 3.0 hours
[8] = Ex 4-1, no cysteine, pH 5, 4.0 hours
[9] = Ex 4-1, no cysteine, pH 7, 0 hour
[10] = Ex 4-1, no cysteine, pH 7, 0.5 hours
[11] = Ex 4-1, no cysteine, pH 7, 1.0 hour
[12] = Ex 4-1, no cysteine, pH 7, 1.5 hours
[13] = Ex 4-1, no cysteine, pH 7, 2.0 hours
[14] = Ex 4-1, no cysteine, pH 7, 3.0 hours
[15] = Ex 4-1, no cysteine, pH 7, 4.0 hours
[16] = Ex 4-2, cysteine, pH 5, 0.5 hours
[17] = Ex 4-2, cysteine, pH 5, 1.0 hour
[18] = Ex 4-2, cysteine, pH 5, 1.5 hours
[19] = Ex 4-2, cysteine, pH 5, 2.0 hours
[20] = Ex 4-2, cysteine, pH 5, 3.0 hours
[21] = Ex 4-2, cysteine, pH 5, 4.0 hours
[22] = Ex 4-2, cysteine, pH 7, 0.5 hours
[23] = Ex 4-2, cysteine, pH 7, 1.0 hour
[24] = Ex 4-2, cysteine, pH 7, 1.5 hours
[25] = Ex 4-2, cysteine, pH 7, 2.0 hours
[26] = Ex 4-2, cysteine, pH 7, 3.0 hours
[27] = Ex 4-2, cysteine, pH 7, 4.0 hours
[28] = gamma counter, sacrificed at the 2nd hour

T1 sequence (A0A8I6GGN2 32-1037): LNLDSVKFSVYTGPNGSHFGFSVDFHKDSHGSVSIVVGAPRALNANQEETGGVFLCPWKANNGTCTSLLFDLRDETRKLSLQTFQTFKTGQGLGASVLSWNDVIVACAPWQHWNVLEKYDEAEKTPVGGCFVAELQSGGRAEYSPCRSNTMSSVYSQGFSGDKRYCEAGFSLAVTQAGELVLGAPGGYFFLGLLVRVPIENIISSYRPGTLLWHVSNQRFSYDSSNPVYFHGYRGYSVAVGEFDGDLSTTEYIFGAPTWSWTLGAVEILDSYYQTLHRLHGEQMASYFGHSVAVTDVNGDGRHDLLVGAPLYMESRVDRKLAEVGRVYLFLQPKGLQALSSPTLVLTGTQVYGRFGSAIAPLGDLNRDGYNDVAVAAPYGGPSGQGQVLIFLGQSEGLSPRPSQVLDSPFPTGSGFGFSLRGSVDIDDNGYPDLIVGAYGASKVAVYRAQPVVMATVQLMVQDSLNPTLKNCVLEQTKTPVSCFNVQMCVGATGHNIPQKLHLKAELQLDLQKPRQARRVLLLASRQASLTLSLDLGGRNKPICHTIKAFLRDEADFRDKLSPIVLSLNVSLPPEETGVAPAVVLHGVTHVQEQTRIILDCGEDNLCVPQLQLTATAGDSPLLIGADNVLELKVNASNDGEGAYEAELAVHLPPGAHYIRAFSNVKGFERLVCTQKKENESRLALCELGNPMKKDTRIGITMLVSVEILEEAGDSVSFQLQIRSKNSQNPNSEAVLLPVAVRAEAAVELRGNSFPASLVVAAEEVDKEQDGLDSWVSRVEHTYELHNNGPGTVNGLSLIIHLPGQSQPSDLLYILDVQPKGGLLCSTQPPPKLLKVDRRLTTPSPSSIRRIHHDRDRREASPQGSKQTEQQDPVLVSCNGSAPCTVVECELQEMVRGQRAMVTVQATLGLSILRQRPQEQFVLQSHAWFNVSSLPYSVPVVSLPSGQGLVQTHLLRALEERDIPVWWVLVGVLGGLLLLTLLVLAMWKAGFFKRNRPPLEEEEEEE
T1 sequence (Q8R2H2 26-787): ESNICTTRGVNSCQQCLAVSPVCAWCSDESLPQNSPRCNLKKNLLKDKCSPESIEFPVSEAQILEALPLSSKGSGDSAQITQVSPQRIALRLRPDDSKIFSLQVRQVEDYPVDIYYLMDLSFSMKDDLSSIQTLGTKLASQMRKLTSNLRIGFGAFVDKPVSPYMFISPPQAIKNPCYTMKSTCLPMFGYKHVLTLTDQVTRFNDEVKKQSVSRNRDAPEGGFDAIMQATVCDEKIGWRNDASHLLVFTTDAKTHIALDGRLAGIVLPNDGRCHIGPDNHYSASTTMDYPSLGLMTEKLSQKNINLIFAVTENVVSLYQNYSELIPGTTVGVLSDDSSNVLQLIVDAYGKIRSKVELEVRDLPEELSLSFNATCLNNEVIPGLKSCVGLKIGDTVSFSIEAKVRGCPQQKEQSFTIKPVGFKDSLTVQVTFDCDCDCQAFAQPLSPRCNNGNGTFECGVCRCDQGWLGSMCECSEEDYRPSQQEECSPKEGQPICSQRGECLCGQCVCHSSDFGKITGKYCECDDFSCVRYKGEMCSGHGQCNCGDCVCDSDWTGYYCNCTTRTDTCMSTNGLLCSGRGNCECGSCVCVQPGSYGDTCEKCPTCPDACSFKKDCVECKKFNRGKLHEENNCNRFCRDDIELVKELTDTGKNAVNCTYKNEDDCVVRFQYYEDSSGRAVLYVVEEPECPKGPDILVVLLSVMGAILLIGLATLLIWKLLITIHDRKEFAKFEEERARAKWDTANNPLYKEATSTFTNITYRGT

O=C(O)C[C@H](NC(=O)[C@@H]1CCCN(C(=O)CCC2CCNCC2)C1)c1cncc(OCCNC(=O)CN2CC(=O)[O][99Tc-]3([O]C(=O)C2)[O]C(=O)CN(CC(=O)NCCOc2cncc([C@H](CC(=O)O)NC(=O)[C@@H]4CCCN(C(=O)CCC5CCNCC5)C4)c2)CC(=O)[O]3)c1 [[Tc-99m]GP-105]
Purity [1, 2]: 82.93%
Eluent A [1, 2]: 100
Eluent B [1, 2]: 17.07
Purity [1, 3]: 72.53%
Eluent A [1, 3]: 95.67
Eluent B [1, 3]: 23.14
Purity [1, 4]: 73.13%
Eluent A [1, 4]: 97.07
Eluent B [1, 4]: 23.94
Purity [1, 5]: 71.23%
Eluent A [1, 5]: 94.54
Eluent B [1, 5]: 23.31
Purity [1, 6]: 60.81%
Eluent A [1, 6]: 93.25
Eluent B [1, 6]: 32.44
Purity [1, 7]: 60.99%
Eluent A [1, 7]: 80.67
Eluent B [1, 7]: 19.68
Purity [1, 8]: 57.11%
Eluent A [1, 8]: 82.64
Eluent B [1, 8]: 25.53
Purity [1, 9]: 82.93%
Eluent A [1, 9]: 100
Eluent B [1, 9]: 17.07
Purity [1, 10]: 65.63%
Eluent A [1, 10]: 90.76
Eluent B [1, 10]: 25.13
Purity [1, 11]: 60.37%
Eluent A [1, 11]: 85.38
Eluent B [1, 11]: 25.01
Purity [1, 12]: 58.73%
Eluent A [1, 12]: 95.97
Eluent B [1, 12]: 37.24
Purity [1, 13]: 54.3%
Eluent A [1, 13]: 96.17
Eluent B [1, 13]: 41.87
Purity [1, 14]: 54.12%
Eluent A [1, 14]: 94
Eluent B [1, 14]: 39.88
Purity [1, 15]: 40.17%
Eluent A [1, 15]: 85.5
Eluent B [1, 15]: 45.33
Purity ([1]; Ex 4-2, cysteine, pH 5, 0 hour): 82.93%
Eluent A ([1]; Ex 4-2, cysteine, pH 5, 0 hour): 100
Eluent B ([1]; Ex 4-2, cysteine, pH 5, 0 hour): 17.07
Purity [1, 16]: 92.37%
Eluent A [1, 16]: 100
Eluent B [1, 16]: 7.63
Purity [1, 17]: 76.25%
Eluent A [1, 17]: 89.07
Eluent B [1, 17]: 12.82
Purity [1, 18]: 87.74%
Eluent A [1, 18]: 100
Eluent B [1, 18]: 12.26
Purity [1, 19]: 38.64%
Eluent A [1, 19]: 57.3
Eluent B [1, 19]: 18.66
Purity [1, 20]: 77.6%
Eluent A [1, 20]: 97.4
Eluent B [1, 20]: 19.8
Purity [1, 21]: 76.51%
Eluent A [1, 21]: 98.31
Eluent B [1, 21]: 21.8
Purity ([1]; Ex 4-2, cysteine, pH 7, 0 hour): 90.38%
Eluent A ([1]; Ex 4-2, cysteine, pH 7, 0 hour): 100
Eluent B ([1]; Ex 4-2, cysteine, pH 7, 0 hour): 9.62
Purity [1, 22]: 92.28%
Eluent A [1, 22]: 98.65
Eluent B [1, 22]: 6.37
Purity [1, 23]: 85.19%
Eluent A [1, 23]: 98.4
Eluent B [1, 23]: 13.21
Purity [1, 24]: 91.63%
Eluent A [1, 24]: 97.22
Eluent B [1, 24]: 5.59
Purity [1, 25]: 89.39%
Eluent A [1, 25]: 95.62
Eluent B [1, 25]: 6.23
Purity [1, 26]: 90.09%
Eluent A [1, 26]: 100
Eluent B [1, 26]: 9.91
Purity [1, 27]: 96.79%
Eluent A [1, 27]: 100
Eluent B [1, 27]: 3.21
Purity ([1]; addition of cysteine, pH of 5 (Table 8)): ≥ 70%
Purity ([1]; addition of cysteine, pH of 7 (Table 8)): ≥ 90%
maximum purity ([1]; no cysteine, pH 5 and pH 7 (text to Table 7)): 82.93%
specific uptake in the disease model (glycoprotein IIb/IIIa): high specific uptake
target to non target ratio (glycoprotein IIb/IIIa; gamma counter, 2nd hour): 2.7
counts per minute (CPM)/g value, left artery (glycoprotein IIb/IIIa; [28]): 23.5 CPM/g
counts per minute (CPM)/g value, right artery (glycoprotein IIb/IIIa; [28]): 63.9 CPM/g
background radioactivity excretion (glycoprotein IIb/IIIa; microSPECT until 4 hours): quick background radioactivity excretion effect
